Experimental data as given in PMC7347559, “Inhibition of the ATP synthase sensitizes Staphylococcus aureus towards human antimicrobial peptides” (Scientific Reports, 2020).
Values after ≈ are worked out from the molar mass of the structure shown. Where a SMILES comes first, the peptide text is derived from it. Bridges are numbered along the chain shown (N, C = ends). Where no end group is shown, it is not given here. [ ]: non-standard residue; d: D form. The star is where a group is joined. X1 = CC[C@H](C)CCCCC(=O)*; Dab = NCC[C@H](N)C(=O)O

Experiments:
[1] = test system: S. aureus JE2 atpA mutant (atpA::ΦNΣ); assay: Bacterial cell survival assay (CFU after 2 h exposure in NaPi); type: cell-based, Staphylococcus aureus; settings: for difference in susceptibility / survival between atpA mutant and WT (in words): 2 h exposure at the concentrations highlighted in Fig. 1a
Method: (§1) From overnight cultures of S. aureus JE2 and mutants, 10 μl was diluted into 990 μl fresh TSB medium in a falcon tube and grown for 2 h for the cells to reach early exponential phase. After 2 h the cultures were re-suspended in 10 mM sodium phosphate buffer (pH 7.4), termed NaPi (Medicago, Sweden). Cells were subsequently diluted in NaPi to approximately 5 × 10^5 CFU/ml, and combined with antimicrobial peptides and resveratrol when indicated, to a final volume of 100 µl and incubated in 96-well plates with shaking for 2 h at 37 °C. Bacteria were plated for CFU on TSA plates. Following overnight incubation at 37 °C for 24 h, viable cells were enumerated and relative cell survival was calculated as CFUwith peptide/CFUwithout peptide at 2 h post-exposure.

[2] = test system: opsonized S. aureus JE2 WT in human neutrophils; settings: 1 h incubation, MOI 1, opsonized with 10% normal human serum; mean of at least seven replicates; without DPI 49.9%
Method: (§2) Blood was collected from healthy adult volunteers and written informed consent was given. Isolation of neutrophils was performed following the procedure described in[36]. All methods were carried out in accordance with relevant guidelines and regulations. The institutional review board (IRB) of the University of Tübingen approved the study and all adult subjects provided informed consent. This study was done in accordance with the ethics committee of the medical faculty of the University of Tübingen that approved the study, Approval number 015/2014 BO2. Briefly, heparinized blood was diluted 1:1 (v/v) with PBS containing 0.5% BSA and 2 mM EDTA and layered onto a gradient of Biocoll (density, 1.077 g/ml; Biochrom) and Histopaque (density, 1.119 g/ml; Sigma). After centrifugation for 20 min at 380×g, neutrophils were collected from the Histopaque phase. Cells were subjected to a brief hypotonic shock with ultrapure-water containing 155 mM ammonium chloride, 1 mM potassium hydrogen carbonate and 0.1 mM EDTA at pH 7.4, washed, and suspended at 2.5 × 10^6 cells/ml in RPMI containing […] HSA, 2 mM glutamine, 2 mM sodium pyruvate and 10 mM HEPES.
(§3) Starter cultures of S. aureus JE2 and its respective atpA mutant were grown in TSB medium overnight.

[3] = test system: opsonized S. aureus JE2 atpA mutant in human neutrophils; settings: 1 h incubation, MOI 1, opsonized with 10% normal human serum; mean of at least seven replicates; without DPI 39.2%
Method: as §2, §3

[4] = test system: S. aureus JE2 atpB mutant (atpB::ΦNΣ); assay: Bacterial cell survival assay (CFU after 2 h exposure in NaPi); type: cell-based, Staphylococcus aureus; settings: hBD4 5 µM
Method: as §1

[5] = test system: S. aureus JE2 atpG mutant (atpG::ΦNΣ); assay: as above; type: cell-based, Staphylococcus aureus; settings: hBD4 5 µM
Method: as §1

[6] = test system: S. aureus JE2 menD mutant (menD::ΦNΣ); assay: as above; type: cell-based, Staphylococcus aureus; settings: hBD4 5 µM
Method: as §1

[7] = test system: S. aureus JE2; assay: Etest MIC on TSA; type: cell-based, Staphylococcus aureus; settings: 37 °C, 24 h
Method: (§4) The MIC for polymyxin B was determined using Etest (bioMérieux, France) in the absence and in the presence of sub-inhibitory concentrations (0.0625x–0.25 × MIC) of resveratrol or menadione (1 µg/ml, Sigma). From overnight cultures, strains were diluted to approximately 10^8 CFU/ml and then distributed on TSA plates using a sterile cotton swab.

[8] = test system: atpA::ΦNΣ; assay: Etest MIC on TSA; type: cell-based, Staphylococcus aureus; settings: 37 °C, 24 h
Method: as §4

[9] = test system: atpA^+ (allelic exchange of transposon insertion with intact atpA gene); assay: Etest MIC on TSA; type: cell-based, Staphylococcus aureus; settings: 37 °C, 24 h
Method: as §4

[10] = test system: menD::ΦNΣ; assay: Etest MIC on TSA; type: cell-based, Staphylococcus aureus; settings: 37 °C, 24 h
Method: as §4

[11] = test system: S. aureus JE2 (WT); assay: Bacterial cell survival assay (CFU after 2 h exposure in NaPi); type: cell-based, Staphylococcus aureus
Method: as §1

[12] = test system: S. aureus JE2; assay: Two-fold broth microdilution MIC in TSB; type: cell-based; settings: Staphylococcus aureus, JE2, 24 h
Method: The minimum inhibitory concentration for resveratrol was determined using a two-fold broth microdilution assay in TSB (100 µl) with an initial inoculum of approximately 5 × 10^5 cells/ml.

For “hBD1: human β-defensin 1 (Innovagen) (DHYNCVSSGGQCLYSACPIFTKIQGTCYRGKAKCCK; ends and bridges not checked; cysteine pairing not given here; UniProt P60022 33-68, looked up)”, the “difference in susceptibility / survival between atpA mutant and WT (in words)” value [1] was “no differences”.

`c1ccc2c(c1)[I+]c1ccccc1-2` [DPI, diphenyleneiodonium] was tested, and the “surviving WT cells in DPI-treated neutrophils, percentage of initial counts” value [2] was 91.4% and the “surviving atpA cells in DPI-treated neutrophils, percentage of initial counts” value [3] was 74.3%.

In the case of “LL-37 (LLGDFFRKSKEKIGKEFKRIVQRIKDFLRNLVPRTES; Antibacterial peptide LL-37; UniProt P49913 134-170, looked up) [human antimicrobial peptide of the cathelicidin family (Isca Biochemicals)]”, the “difference in susceptibility / survival between atpA mutant and WT (in words)” value [1] is reported as “minor increase in bactericidal activity”.

histatin-5 was tested, and the “difference in susceptibility / survival between atpA mutant and WT (in words)” value [1] was “minor increase in bactericidal activity”.

With “hBD4: human β-defensin 4 (Innovagen) (EFELDRICGYGTARCRKKCRSQEYRIGRCPNTYACCLRKWDESLLNRTKP; ends and bridges not checked; cysteine pairing not given here; UniProt Q8WTQ1 23-72, looked up)” the “difference in susceptibility / survival between atpA mutant and WT (in words)” value [1] was “more susceptible”, the “greater reduction in viable cells of atpA mutant compared with WT” value ([1]; 2 h exposure, concentrations of Fig. 1a (5 µM)) was 63 fold and the “susceptibility of atpB mutant compared with WT” value [4] was “increased susceptibility”. The “susceptibility of atpG mutant compared with WT” value [5] was “increased susceptibility” and the “reduction in viable cell count of menD mutant” value [6] was “no reduction in viable cell count”.

In the case of `CC[C@H](C)CCCCC(=O)N[C@@H](CCN)C(=O)N[C@H](C(=O)N[C@@H](CCN)C(=O)N[C@H]1CCNC(=O)[C@H]([C@@H](C)O)NC(=O)[C@H](CCN)NC(=O)[C@H](CCN)NC(=O)[C@H](CC(C)C)NC(=O)[C@@H](Cc2ccccc2)NC(=O)[C@H](CCN)NC1=O)[C@@H](C)O` [polymyxin B] (X1-[Dab]T[Dab][Dab][Dab][dF]L[Dab][Dab]T; lactam 4-C (inferred); N-terminus assumed), the “Polymyxin B MIC” value ([7]; TSA + 0 µg/ml resveratrol) is reported as 128 µg/mL, the “Polymyxin B MIC” value ([7]; TSA + 16 µg/ml resveratrol) is reported as 64 to 96 µg/mL and the “Polymyxin B MIC” value ([7]; TSA + 32 µg/ml resveratrol) is reported as 48 µg/mL. For the same compound, the “Polymyxin B MIC” value ([7]; TSA + 64 µg/ml resveratrol) was 24 µg/mL, the MIC ([7]; TSA) was 128 µg/mL (≈ 106 µM) and the MIC [8] was 16 µg/mL (≈ 13.3 µM). The MIC [9] was 96 µg/mL (≈ 79.8 µM), the MIC ([10]; TSA + menadione (1 µg/ml)) was 192 µg/mL and the MIC ([10]; TSA) was greater than 1024 µg/mL.

With `Oc1ccc(/C=C/c2cc(O)cc(O)c2)cc1` [resveratrol] the “increase in killing of WT S. aureus compared with hBD4 alone” value ([11]; resveratrol 32 µg/ml in combination with hBD4 5 µM) was 20 fold, the “impact on S. aureus viability” value ([11]; resveratrol alone at sub-inhibitory concentration 0.125 × MIC (32 µg/ml)) was “no impact” and the MIC [12] was 256 µg/mL (≈ 1120 µM).

With “hBD3: human β-defensin 3 (Innovagen) (GIINTLQKYYCRVRGGRCAVLSCLPKEEQIGKCSTRGRKCCRRKK; ends and bridges not checked; cysteine pairing not given here; UniProt P81534 23-67, looked up)” the “difference in susceptibility / survival between atpA mutant and WT (in words)” value [1] was “no differences”.
